Measured values: US20170269061A1, “METHOD FOR ASSESSING SENSITIVITY OF A TARGET DRUG IN VITRO AND A BIOMARKER USED THEREOF” (Tunghai University, priority 2016, published 2017)

How the values were obtained:
[1] = test system: BT-474 cells; experiment: Immunofluorescence microscopy of drug localization (Cell Experiment I); format: cell-based; conditions: T-DM1 1 μg/ml or trastuzumab 10 μg/ml for 30 min
Protocol: (§1) After washing, each of the cells was fixed with 3.7% formaldehyde and permeabilized with 0.1% Triton-X 100. The fixed cells were incubated with rabbit anti-caveolin-1 antibody (1:100 dilution in PBS/0.1% Triton-100/3% BSA) at room temperature for 1 hour and then incubated with Cy3-conjugated anti-rabbit secondary antibodies (1:200 dilution in PBS/0.1% Triton-100/3% BSA) at room temperature for 1 hour.

[2] = test system: SKBR-3 cells; experiment: as above; format: cell-based; conditions: T-DM1 1 μg/ml or trastuzumab 10 μg/ml for 30 min, co-staining with caveolin-1
Protocol: as §1

[3] = test system: SKBR-3 cells
Protocol: Pro-survival protein Bcl-2 expression in each of the cells, culturing under different condition in example 7 at 48 hours, were determined by Western blot.
Using an annexin V detection kit (Invitrogen, ThermoFisher, Waltham, Mass., USA) to label cell surface phosphatidylserine of apoptotic cells and analysis these stained cells by flow cytometry. […] Co-staining images were taken by inverted fluorescence microscope shown in FIG. 15, wherein green color indicates annexin V positive apoptotic cell, red color indicates PI positive necrotic cell. Annexin V stained cells with PI positive staining were excluded as necrotic cells, apoptotic cells with only annexin V staining were counted and divided by total cells as the percentage of apoptosis. […] And, annexin V positive/PI negative apoptosis in FIG. 15 was quantified.

[4] = test system: SKBR-3 cells; conditions: SKBR-3 with caveolin-1 siRNA; T-DM1 72 hours; p<0.05
Protocol: BT-474 cells were grown on plates in normal growth medium without antibiotics, and Lipofectamine 2000 transfection reagent (Invitrogen, ThermoFisher, Waltham, Mass., USA) was used to induce GFP-tagged caveolin-1 (Addgene, Cambridge, Mass., USA) overexpression. Caveolin-1siRNA (Dharmacon, GE health care, Lafayette, Colo., USA) was used in the knockdown experiment in SKBR-3 cells.

[5] = test system: SKBR-3 cells; conditions: 1 μg/ml T-DM1 vs 10 μg/ml trastuzumab, 72 hour, p<0.01
Protocol: After culturing each of the cells under different condition in example 7, 0.1 ml of 0.4% trypan blue and deionized water (1:1) was added. Dead cells were stained blue, while live cells remained unstained. Therefore, the number of dead cells could be estimated and cell viability estimated with a hemocytometer. Wherein, the cell mortality was expressed as the percentage of trypan blue-positive cells compared to the total number of cells and the viability percentage was presented by the number of live cells divided by the number of untreated control cells×100.

[6] = test system: MDA-MB-231, SKBR-3 and BT-474 cells; experiment: Phase contrast observation of treated cells (Cell Experiment II); format: cell-based; conditions: 1 μg/ml paclitaxel, 72 hour; compared with 10 μg/ml trastuzumab and 1 μg/ml T-DM1

| Compound | localization of drug in cells [1] | localization of drug in cells [2] | Bcl-2 expression level ([3]; 1 μg/ml T-DM1, 48 hours, Western blot) | drug sensitivity (cell viability) with pan-caspase inhibitor Z-VAD-FMK ([3]; 1 μg/ml T-DM1 plus Z-VAD-FMK) | necrotic cells (PI staining) ([3]; T-DM1 treated) | percentage of apoptosis (annexin V) ([3]; T-DM1 treated) | T-DM1 efficacy on CAV-1 knockdown [4] | cell sensitivity (cell viability) versus trastuzumab [5] | cytotoxicity (phase contrast) [6] |
| --- | --- | --- | --- | --- | --- | --- | --- | --- | --- |
| trastuzumab emtansine [T-DM1] | localized only in the cell membrane | colocalized in the SKBR-3 cell membrane and cytosol | lower level of Bcl-2 | decreased | fewer necrotic cells | increased percentage of apoptosis | significantly reduced T-DM1 efficacy | significantly more sensitive | – |
| CC(=O)O[C@H]1C(=O)[C@@]2(C)[C@H]([C@H](OC(=O)c3ccccc3)[C@]3(O)C[C@H](OC(=O)[C@H](O)[C@@H](NC(=O)c4ccccc4)c4ccccc4)C(C)=C1C3(C)C)[C@]1(OC(C)=O)CO[C@@H]1C[C@@H]2O [paclitaxel] | – | – | – | – | – | – | – | – | most cytotoxicity |
